Data from US9334246B2, “Substituted triazines for malaria treatment and chemoprophylaxis” (The United States of America, as represented by the …, priority 2013, dated 2016).

How the values were obtained:
Type in all cases: cell-based, Plasmodium falciparum
P. falciparum W2 = assay: Malaria SYBR Green Fluorescence Assay, W2 strain
P. falciparum C235 = assay: Malaria SYBR Green Fluorescence Assay, C235 strain
P. falciparum D6 = assay: Malaria SYBR Green Fluorescence Assay, D6 strain

Row | SMILES | W2 (SYBR Green Assay IC50) (P. falciparum W2) [µg/mL] | C235 (SYBR Green Assay IC50) (P. falciparum C235) [µg/mL] | D6 (SYBR Green Assay IC50) (P. falciparum D6) [µg/mL]
1 | ClC(Cl)(Cl)c1nc(NCCCN2CCCC2)nc(-c2ccccc2)n1 [Cmpd 406] | 0.035 | 0.089 | 0.077
2 | ClC(Cl)(Cl)c1nc(-c2ccccc2)nc(N2CCCNCC2)n1 [Cmpd 408] | 0.084 | 0.189 | 0.19
3 | CN1CCCN(c2nc(-c3ccccc3)nc(C(Cl)(Cl)Cl)n2)CC1 [Cmpd 409] | 0.043 | 0.119 | 0.118
4 | CCN1CCC(CNc2nc(-c3ccccc3)nc(C(Cl)(Cl)Cl)n2)CC1 [Cmpd 410] | 0.035 | 0.113 | 0.103
5 | COc1ccc(-c2nc(N3CCN(CCO)CC3)nc(C(Cl)(Cl)Cl)n2)c2ccccc12 [Cmpd 422] | 0.073 | 0.31 | 0.291
6 | CN1CCN(c2nc(-c3ccc(N4CCCC4)cc3)nc(C(Cl)(Cl)Cl)n2)CC1 [Cmpd 427] | 0.459 | 0.877 | 0.676
7 | CCN1CCCC(Nc2nc(-c3ccc(N4CCCC4)cc3)nc(C(Cl)(Cl)Cl)n2)C1 (stereo not drawn) [Cmpd 429] | 0.607 | 0.912 | 0.791
8 | Clc1cccc(-c2nc(NCCCN3CCCC3)nc(C(Cl)(Cl)Cl)n2)c1 [Cmpd 433] | 0.044 | 0.145 | 0.076
9 | CN1CCN(c2nc(-c3cccc(Cl)c3)nc(C(Cl)(Cl)Cl)n2)CC1 [Cmpd 436] | 0.019 | 0.158 | 0.155
10 | CN(C)CCCNc1nc(-c2ccc(S(C)(=O)=O)cc2)nc(C(Cl)(Cl)Cl)n1 [Cmpd 442] | 0.001 | 0.002 | 0.002
11 | CN(C)CCCNc1nc(-c2ccccc2)nc(C(Cl)(Cl)Cl)n1 [Cmpd 443] | 0.043 | 0.161 | 0.145
12 | CN(C)CCCNc1nc(-c2ccc(-c3ccccc3)cc2)nc(C(Cl)(Cl)Cl)n1 [Cmpd 445] | 0.116 | 0.189 | 0.151
13 | Cc1ccc(-c2ccccc2-c2nc(NCCCN(C)C)nc(C(Cl)(Cl)Cl)n2)cc1 [Cmpd 446] | 0.223 | 0.535 | 0.482
14 | CN(C)CCCNc1nc(-c2ccc(F)cc2)nc(C(Cl)(Cl)Cl)n1 [Cmpd 448] | 0.007 | 0.04 | 0.035
15 | COc1ccc(-c2nc(NCCCN(C)C)nc(C(Cl)(Cl)Cl)n2)cc1OC [Cmpd 450] | 0.091 | 0.252 | 0.239
16 | Cc1ccc(-c2nc(N3CCCN(CCO)CC3)nc(C(Cl)(Cl)Cl)n2)cc1 [Cmpd 453] | 0.043 | 0.112 | 0.173
17 | OCCN1CCCN(c2nc(-c3ccc(Cl)c(Cl)c3)nc(C(Cl)(Cl)Cl)n2)CC1 [Cmpd 454] | 0.064 | 0.118 | 0.252
18 | OCCN1CCCN(c2nc(-c3ccc(Cl)cc3)nc(C(Cl)(Cl)Cl)n2)CC1 [Cmpd 455] | 0.065 | 0.118 | 0.214
19 | OCCN1CCCN(c2nc(-c3cccc(C(F)(F)F)c3)nc(C(Cl)(Cl)Cl)n2)CC1 [Cmpd 456] | 0.091 | 0.136 | 0.207
20 | CSc1ccc(-c2nc(N3CCCN(CCO)CC3)nc(C(Cl)(Cl)Cl)n2)cc1 [Cmpd 457] | 0.08 | 0.168 | 0.328

Row | SMILES | W2 (SYBR Green Assay IC50) (P. falciparum W2) [µg/mL] | C235 (SYBR Green Assay IC50) (P. falciparum C235) [µg/mL] | D6 (SYBR Green Assay IC50) (P. falciparum D6) [µg/mL]
21 | OCCN1CCCN(c2nc(-c3ccccc3)nc(C(Cl)(Cl)Cl)n2)CC1 [Cmpd 458] | 0.044 | 0.116 | 0.172
22 | OCCN1CCCN(c2nc(-c3ccc4ccccc4c3)nc(C(Cl)(Cl)Cl)n2)CC1 [Cmpd 459] | 0.108 | 0.153 | 0.163
23 | COc1ccc(-c2nc(N3CCCN(CCO)CC3)nc(C(Cl)(Cl)Cl)n2)c2ccccc12 [Cmpd 463] | 0.201 | 0.306 | 0.355
24 | Clc1cccc(-c2nc(NCCc3cnccn3)nc(C(Cl)(Cl)Cl)n2)c1 [Cmpd 472] | 0.051 | 0.244 | 0.449
25 | CN(CCc1ccccn1)c1nc(-c2cc(Cl)cc(Cl)c2)nc(C(Cl)(Cl)Cl)n1 [Cmpd 474] | 0.208 | 0.527 | 0.065
26 | COc1cc(OC)cc(-c2nc(NCCN3CCCC3)nc(C(Cl)(Cl)Cl)n2)c1 [Cmpd 476] | 0.023 | 0.035 | 0.057
27 | COc1cc(OC)cc(-c2nc(NCCCN3CCCC3)nc(C(Cl)(Cl)Cl)n2)c1 [Cmpd 477] | 0.023 | 0.041 | 0.077
28 | COc1cc(OC)cc(-c2nc(NCCC3CCCN3C)nc(C(Cl)(Cl)Cl)n2)c1 (stereo not drawn) [Cmpd 478] | 0.014 | 0.022 | 0.042
29 | CCN(CC)CCNc1nc(-c2cc(OC)cc(OC)c2)nc(C(Cl)(Cl)Cl)n1 [Cmpd 479] | 0.012 | 0.017 | 0.038
30 | COc1cc(OC)cc(-c2nc(NCC(C)(C)N)nc(C(Cl)(Cl)Cl)n2)c1 [Cmpd 481] | 0.012 | 0.017 | 0.035
31 | COc1cccc(-c2nc(NCC3CCN(C(C)C)CC3)nc(C(Cl)(Cl)Cl)n2)c1 [Cmpd 485] | 0.024 | 0.045 | 0.094
32 | CC(C)N1CCC(CNc2nc(-c3ccc(Cl)cc3)nc(C(Cl)(Cl)Cl)n2)CC1 [Cmpd 487] | 0.019 | 0.033 | 0.064
33 | CC(C)N1CCC(CNc2nc(-c3ccc(C(C)(C)C)cc3)nc(C(Cl)(Cl)Cl)n2)CC1 [Cmpd 488] | 0.016 | 0.02 | 0.027
34 | CC(C)N1CCC(CNc2nc(-c3cccc(C(F)(F)F)c3)nc(C(Cl)(Cl)Cl)n2)CC1 [Cmpd 489] | 0.008 | 0.01 | 0.014
35 | CSc1ccc(-c2nc(NCC3CCN(C(C)C)CC3)nc(C(Cl)(Cl)Cl)n2)cc1 [Cmpd 490] | 0.049 | 0.067 | 0.091
36 | CC(C)N1CCC(CNc2nc(-c3ccc(S(C)(=O)=O)cc3)nc(C(Cl)(Cl)Cl)n2)CC1 [Cmpd 491] | 0.018 | 0.034 | 0.048
37 | CC(C)N1CCC(CNc2nc(-c3ccc(C(Cl)(Cl)Cl)cc3)nc(C(Cl)(Cl)Cl)n2)CC1 [Cmpd 492] | 0.033 | 0.052 | 0.095
38 | CC(C)N1CCC(CNc2nc(-c3ccc4ccccc4c3)nc(C(Cl)(Cl)Cl)n2)CC1 [Cmpd 494] | 0.018 | 0.023 | 0.038
39 | CC(C)N1CCC(CNc2nc(-c3cc(Cl)cc(Cl)c3)nc(C(Cl)(Cl)Cl)n2)CC1 [Cmpd 495] | 0.01 | 0.013 | 0.036
